Source: ChEMBL document CHEMBL3217743, “Reduction of acyl glucuronidation in a series of acidic 11-hydroxysteroid dehydrogenase type 1 (11-HSD1) inhibitors: the discovery of AZD6925” (Medchemcomm, 2012)
Activity calls are given as the source filed them. The rule behind the calls is not given here.

Legend:
[1] = target: CYP2C19 (Homo sapiens, UniProt P33261); assay: Inhibition of CYP2C19 (unknown origin) at 10 uM relative to control; type: ADME
[2] = target: CYP3A4 (Homo sapiens, UniProt P08684); assay: Inhibition of CYP3A4 (unknown origin) at 10 uM relative to control; type: ADME
Chain of CYP3A4 (P08684 whole entry): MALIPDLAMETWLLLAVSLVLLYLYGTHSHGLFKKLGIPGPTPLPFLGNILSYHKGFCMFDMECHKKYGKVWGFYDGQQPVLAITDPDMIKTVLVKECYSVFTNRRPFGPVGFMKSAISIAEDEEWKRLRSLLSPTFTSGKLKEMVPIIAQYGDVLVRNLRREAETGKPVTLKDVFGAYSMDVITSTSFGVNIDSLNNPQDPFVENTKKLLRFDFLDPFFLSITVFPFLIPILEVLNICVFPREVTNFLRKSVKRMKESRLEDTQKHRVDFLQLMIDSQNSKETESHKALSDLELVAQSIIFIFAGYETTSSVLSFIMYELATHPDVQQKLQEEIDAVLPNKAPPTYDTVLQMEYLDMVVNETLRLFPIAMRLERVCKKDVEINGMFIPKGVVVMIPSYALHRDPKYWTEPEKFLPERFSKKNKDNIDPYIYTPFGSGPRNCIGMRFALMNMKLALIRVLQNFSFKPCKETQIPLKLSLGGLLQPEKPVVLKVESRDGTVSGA

[3] = Octanol-buffer partition coefficient, log D of the compound at pH 7.4 after 30 mins by shake-flask method; type: physicochemical
[4] = Drug metabolism in human hepatocytes assessed as compound remaining by LC-MS/MS analysis; type: ADME, cell-based, Hepatocyte
[5] = test system: Mus musculus; assay: Ex vivo inhibition of 11beta-HSD1-mediated conversion of [3H]-cortisone to [3H]-cortisol in C57Bl6J mouse adipose tissue at 30 mg/kg, po after 1 hr by scintillation counting analysis relative to control; type: functional
[6] = Apparent permeability from basolateral to apical side in MDCK cells at 10 uM; type: ADME, cell-based, Canis lupus familiaris; conditions: dog
[7] = target: CYP2C9 (Homo sapiens, UniProt P11712); assay: Inhibition of CYP2C9 (unknown origin) at 10 uM relative to control; type: ADME
Chain of CYP2C9 (P11712 whole entry): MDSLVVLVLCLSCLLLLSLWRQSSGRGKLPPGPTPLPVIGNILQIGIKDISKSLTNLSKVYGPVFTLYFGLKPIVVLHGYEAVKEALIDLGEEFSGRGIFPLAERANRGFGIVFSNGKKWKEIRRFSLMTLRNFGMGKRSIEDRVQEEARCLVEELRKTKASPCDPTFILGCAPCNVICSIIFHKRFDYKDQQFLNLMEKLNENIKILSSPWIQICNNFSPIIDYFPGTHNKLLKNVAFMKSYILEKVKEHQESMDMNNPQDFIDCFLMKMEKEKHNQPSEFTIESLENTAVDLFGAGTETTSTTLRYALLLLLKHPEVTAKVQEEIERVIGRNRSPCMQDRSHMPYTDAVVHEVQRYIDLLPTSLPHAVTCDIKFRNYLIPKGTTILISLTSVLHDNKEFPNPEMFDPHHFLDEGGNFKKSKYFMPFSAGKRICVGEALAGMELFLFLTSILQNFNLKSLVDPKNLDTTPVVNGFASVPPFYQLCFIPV

[8] = target: T1, 17-beta-hydroxysteroid dehydrogenase type 1 (Homo sapiens) (UniProt P14061); assay: Inhibition of recombinant 17beta-HSD1 (unknown origin) assessed as conversion of estrone to estradiol at 10 uM after 20 mins by scintillation counting analysis relative to control
T1 sequence (whole entry): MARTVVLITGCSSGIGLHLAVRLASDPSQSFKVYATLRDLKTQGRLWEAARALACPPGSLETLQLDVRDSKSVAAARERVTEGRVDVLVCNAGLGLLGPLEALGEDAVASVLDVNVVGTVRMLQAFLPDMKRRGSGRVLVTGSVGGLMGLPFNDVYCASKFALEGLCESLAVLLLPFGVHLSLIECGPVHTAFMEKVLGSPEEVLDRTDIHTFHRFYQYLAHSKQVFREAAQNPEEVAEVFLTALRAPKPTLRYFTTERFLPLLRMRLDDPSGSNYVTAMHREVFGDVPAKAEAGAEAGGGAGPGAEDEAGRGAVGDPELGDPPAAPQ

[9] = target: Voltage-gated inwardly rectifying potassium channel KCNH2 (Homo sapiens, UniProt Q12809); assay: Inhibition of human ERG
Chain of Voltage-gated inwardly rectifying potassium channel KCNH2 (Q12809 whole entry): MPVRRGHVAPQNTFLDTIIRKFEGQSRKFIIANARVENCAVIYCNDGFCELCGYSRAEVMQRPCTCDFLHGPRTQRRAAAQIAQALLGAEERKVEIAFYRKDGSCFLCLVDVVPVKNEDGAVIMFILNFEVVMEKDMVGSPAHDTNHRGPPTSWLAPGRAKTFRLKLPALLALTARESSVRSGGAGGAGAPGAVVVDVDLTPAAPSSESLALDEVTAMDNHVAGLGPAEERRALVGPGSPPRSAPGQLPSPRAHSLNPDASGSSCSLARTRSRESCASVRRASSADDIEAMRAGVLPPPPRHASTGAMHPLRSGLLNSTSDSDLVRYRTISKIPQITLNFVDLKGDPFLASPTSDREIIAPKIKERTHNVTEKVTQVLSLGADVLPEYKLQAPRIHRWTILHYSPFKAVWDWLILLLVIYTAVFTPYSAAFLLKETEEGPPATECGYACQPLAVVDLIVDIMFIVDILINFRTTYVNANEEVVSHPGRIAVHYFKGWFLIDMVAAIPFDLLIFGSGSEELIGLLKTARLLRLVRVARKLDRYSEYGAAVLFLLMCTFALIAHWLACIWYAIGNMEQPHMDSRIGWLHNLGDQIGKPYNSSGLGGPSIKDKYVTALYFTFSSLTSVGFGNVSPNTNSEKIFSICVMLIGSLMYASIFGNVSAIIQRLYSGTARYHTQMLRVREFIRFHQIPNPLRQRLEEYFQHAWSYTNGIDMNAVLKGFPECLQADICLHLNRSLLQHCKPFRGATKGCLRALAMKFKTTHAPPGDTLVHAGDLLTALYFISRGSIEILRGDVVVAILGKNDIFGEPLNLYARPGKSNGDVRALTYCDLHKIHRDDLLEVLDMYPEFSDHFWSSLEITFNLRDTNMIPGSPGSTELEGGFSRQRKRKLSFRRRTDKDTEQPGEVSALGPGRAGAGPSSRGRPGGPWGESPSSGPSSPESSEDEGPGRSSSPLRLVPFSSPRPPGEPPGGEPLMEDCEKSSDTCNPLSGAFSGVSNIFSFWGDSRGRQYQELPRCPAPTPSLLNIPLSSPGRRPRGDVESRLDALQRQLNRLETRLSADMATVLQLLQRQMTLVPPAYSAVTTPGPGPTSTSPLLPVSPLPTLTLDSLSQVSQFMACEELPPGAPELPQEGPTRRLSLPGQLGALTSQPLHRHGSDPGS

[10] = test system: L5178Y; assay: Mutagenicity in mouse L5178Y cells by mouse lymphoma assay; type: toxicity, cell-based
[11] = Plasma clearance in dog at 1 to 3 mg/kg; type: ADME, organism-based, Canis lupus familiaris; parameters: dose 1-3 mg/kg
[12] = target: Phosphodiesterase 4 (Homo sapiens, UniProt P27815+Q08499+Q07343+Q08493); assay: Inhibition of PDE4 (unknown origin); type: protein assay
[13] = test system: Salmonella typhimurium; assay: Genotoxicity in Salmonella typhimurium by Ames test; type: toxicity, organism-based; conditions: salmonella enterica subsp. enterica serovar typhimurium
[14] = Volume of distribution at steady state in rat at 1 to 3 mg/kg; type: ADME, organism-based; parameters: dose 1-3 mg/kg; conditions: in vivo, read-out: Vdss
[15] = Fraction unbound in rat plasma by equilibrium dialysis technique; type: ADME, cell-free
[16] = Plasma clearance in mouse at 1 to 3 mg/kg; type: ADME, organism-based; parameters: dose 1-3 mg/kg
[17] = Plasma clearance in rat at 1 to 3 mg/kg; type: ADME, organism-based; parameters: dose 1-3 mg/kg
[18] = target: Sigma non-opioid intracellular receptor 1 (Homo sapiens, UniProt Q99720); assay: Inhibition of sigma-1 receptor (unknown origin)
Chain of Sigma non-opioid intracellular receptor 1 (Q99720 whole entry): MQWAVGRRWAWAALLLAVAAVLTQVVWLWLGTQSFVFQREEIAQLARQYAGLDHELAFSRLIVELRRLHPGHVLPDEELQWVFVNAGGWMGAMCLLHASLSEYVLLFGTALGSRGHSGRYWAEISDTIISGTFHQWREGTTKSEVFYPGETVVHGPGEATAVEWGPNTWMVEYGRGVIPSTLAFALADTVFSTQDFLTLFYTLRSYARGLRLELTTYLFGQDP

[19] = Volume of distribution at steady state in dog at 1 to 3 mg/kg; type: ADME, organism-based, Canis lupus familiaris; parameters: dose 1-3 mg/kg; conditions: in vivo, read-out: Vdss
[20] = Clearance in rat hepatocytes measured per 10^6 cells; type: ADME, cell-based, Hepatocyte; conditions: read-out: CLH
[21] = target: 11-beta-hydroxysteroid dehydrogenase 1 (Rattus norvegicus, UniProt P16232); assay: Inhibition of N-terminal 6-His-tagged rat full length 11beta-HSD1 assessed as conversion of cortisone to cortisol after 25 mins by HTRF assay
Chain of 11-beta-hydroxysteroid dehydrogenase 1 (Rattus norvegicus, UniProt P16232) (P16232 whole entry): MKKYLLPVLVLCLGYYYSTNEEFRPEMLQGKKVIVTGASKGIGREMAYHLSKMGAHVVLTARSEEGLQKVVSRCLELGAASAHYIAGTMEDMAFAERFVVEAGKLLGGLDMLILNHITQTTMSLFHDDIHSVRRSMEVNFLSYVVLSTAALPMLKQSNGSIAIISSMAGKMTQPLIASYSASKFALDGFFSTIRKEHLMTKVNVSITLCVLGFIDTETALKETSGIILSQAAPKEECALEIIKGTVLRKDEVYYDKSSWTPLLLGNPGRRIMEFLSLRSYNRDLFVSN

[22] = Inhibition of N-terminal 6-His-tagged dog full length 11beta-HSD1 assessed as conversion of cortisone to cortisol after 25 mins by HTRF assay; parameters: species or system Canis lupus familiaris
[23] = target: CYP2D6 (Homo sapiens, UniProt P10635); assay: Inhibition of CYP2D6 (unknown origin) at 10 uM relative to control; type: ADME
Chain of CYP2D6 (P10635 whole entry): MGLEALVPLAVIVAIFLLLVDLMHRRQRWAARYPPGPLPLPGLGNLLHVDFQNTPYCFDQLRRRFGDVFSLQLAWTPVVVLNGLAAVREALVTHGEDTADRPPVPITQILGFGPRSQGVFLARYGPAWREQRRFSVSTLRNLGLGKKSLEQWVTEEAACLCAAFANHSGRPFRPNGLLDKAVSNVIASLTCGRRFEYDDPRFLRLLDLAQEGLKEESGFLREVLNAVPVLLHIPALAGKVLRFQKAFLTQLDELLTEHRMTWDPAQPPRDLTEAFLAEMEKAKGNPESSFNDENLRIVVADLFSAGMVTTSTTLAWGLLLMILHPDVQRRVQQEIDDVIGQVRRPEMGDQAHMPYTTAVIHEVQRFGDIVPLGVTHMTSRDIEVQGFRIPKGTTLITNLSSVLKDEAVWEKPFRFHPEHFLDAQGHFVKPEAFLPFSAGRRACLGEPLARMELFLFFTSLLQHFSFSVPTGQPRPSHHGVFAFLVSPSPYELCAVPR

[24] = Fraction unbound in human plasma by equilibrium dialysis technique; type: ADME, cell-free
[25] = target: T2, 11-beta-hydroxysteroid dehydrogenase type 2 (Homo sapiens, UniProt P80365); assay: Inhibition of recombinant 11beta-HSD2 (unknown origin) assessed as conversion of cortisol to cortisone after 40 mins by fluorescence assay
T2 sequence (P80365 whole entry): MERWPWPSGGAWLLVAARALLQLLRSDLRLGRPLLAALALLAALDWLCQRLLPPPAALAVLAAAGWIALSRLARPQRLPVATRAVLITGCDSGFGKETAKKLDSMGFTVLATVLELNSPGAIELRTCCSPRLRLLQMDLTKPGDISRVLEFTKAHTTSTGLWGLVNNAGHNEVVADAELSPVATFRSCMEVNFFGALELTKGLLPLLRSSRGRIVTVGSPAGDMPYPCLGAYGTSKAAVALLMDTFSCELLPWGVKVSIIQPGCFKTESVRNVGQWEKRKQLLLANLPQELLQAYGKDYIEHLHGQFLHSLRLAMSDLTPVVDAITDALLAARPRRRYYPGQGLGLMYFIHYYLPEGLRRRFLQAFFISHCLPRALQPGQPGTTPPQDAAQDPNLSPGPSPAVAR

[26] = Aqueous solubility of crystalline form of compound in phosphate buffer at pH 7.4 after 24 hrs by LC-UV analysis; type: physicochemical
[27] = target: 11-beta-hydroxysteroid dehydrogenase 1 (Mus musculus, UniProt P50172); assay: Inhibition of N-terminal 6-His-tagged mouse full length 11beta-HSD1 assessed as conversion of cortisone to cortisol after 25 mins by HTRF assay
Chain of 11-beta-hydroxysteroid dehydrogenase 1 (Mus musculus, UniProt P50172) (P50172 whole entry): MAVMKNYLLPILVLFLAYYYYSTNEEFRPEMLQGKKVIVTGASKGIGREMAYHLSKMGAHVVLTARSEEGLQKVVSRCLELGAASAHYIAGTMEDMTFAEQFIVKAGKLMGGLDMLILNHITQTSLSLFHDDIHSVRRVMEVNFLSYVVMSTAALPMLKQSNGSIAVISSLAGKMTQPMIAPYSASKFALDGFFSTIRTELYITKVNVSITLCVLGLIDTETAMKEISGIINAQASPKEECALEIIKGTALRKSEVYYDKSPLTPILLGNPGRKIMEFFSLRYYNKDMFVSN

[28] = Volume of distribution at steady state in mouse at 1 to 3 mg/kg; type: ADME, organism-based; parameters: dose 1-3 mg/kg; conditions: in vivo, read-out: Vdss
[29] = Drug excretion in bile duct cannulated rat bile assessed as compound remaining by HPLC analysis; type: ADME, tissue-based; conditions: in vivo
[30] = Half life in rat at 1 to 3 mg/kg, po; type: ADME, organism-based; parameters: dose 1-3 mg/kg, route oral; conditions: in vivo
[31] = Half life in mouse at 1 to 3 mg/kg, po; type: ADME, organism-based; parameters: dose 1-3 mg/kg, route oral; conditions: in vivo
[32] = Half life in rat at 1 to 3 mg/kg, iv; type: ADME, organism-based; parameters: dose 1-3 mg/kg, route intravenous; conditions: in vivo
[33] = Fraction unbound in mouse plasma by equilibrium dialysis technique; type: ADME, cell-free
[34] = test system: Mus musculus; assay: Ex vivo inhibition of 11beta-HSD1-mediated conversion of [3H]-cortisone to [3H]-cortisol in C57Bl6J mouse liver at 30 mg/kg, po by scintillation counting analysis; type: functional, organism-based; parameters: dose 30 mg/kg
[35] = Drug metabolism in dog hepatocytes assessed as compound remaining by LC-MS/MS analysis; type: ADME, cell-based, Canis lupus familiaris, Hepatocyte
[36] = target: 11-beta-hydroxysteroid dehydrogenase 1 (Homo sapiens, UniProt P28845)
Chain of 11-beta-hydroxysteroid dehydrogenase 1 (Homo sapiens, UniProt P28845) (P28845 whole entry): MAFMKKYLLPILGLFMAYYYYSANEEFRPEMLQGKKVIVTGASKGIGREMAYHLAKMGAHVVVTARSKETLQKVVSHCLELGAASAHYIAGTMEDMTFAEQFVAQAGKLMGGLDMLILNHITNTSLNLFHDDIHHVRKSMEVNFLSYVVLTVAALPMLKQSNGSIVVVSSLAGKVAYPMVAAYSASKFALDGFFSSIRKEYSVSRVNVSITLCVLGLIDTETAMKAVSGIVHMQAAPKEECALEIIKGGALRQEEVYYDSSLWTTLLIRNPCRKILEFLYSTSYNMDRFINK
Description: Inhibition of N-terminal 6-His-tagged human full length 11beta-HSD1 assessed as conversion of cortisone to cortisol after 25 mins by HTRF assay

[37] = Fraction unbound in dog plasma by equilibrium dialysis technique; type: ADME, cell-free, Canis lupus familiaris
[38] = Drug excretion in bile duct cannulated rat urine assessed as compound remaining by HPLC analysis; type: ADME, tissue-based; conditions: read-out: Stability

Chain of CYP2C19 (P33261 whole entry): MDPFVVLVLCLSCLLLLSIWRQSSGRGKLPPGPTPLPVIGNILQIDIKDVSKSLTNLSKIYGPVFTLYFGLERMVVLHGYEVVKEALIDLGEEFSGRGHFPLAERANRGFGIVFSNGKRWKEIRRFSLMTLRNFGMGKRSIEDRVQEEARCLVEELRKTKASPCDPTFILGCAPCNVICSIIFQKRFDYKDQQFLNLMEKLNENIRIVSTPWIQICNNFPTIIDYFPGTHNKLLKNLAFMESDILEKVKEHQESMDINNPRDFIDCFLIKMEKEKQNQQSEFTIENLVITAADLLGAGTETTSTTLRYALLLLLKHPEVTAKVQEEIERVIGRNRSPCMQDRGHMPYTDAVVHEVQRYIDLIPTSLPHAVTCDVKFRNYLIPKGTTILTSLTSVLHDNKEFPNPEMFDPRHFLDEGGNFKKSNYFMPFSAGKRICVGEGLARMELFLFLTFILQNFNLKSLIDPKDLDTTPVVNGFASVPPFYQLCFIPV

inhibition at 10 µM [1]: < 25%
inhibition at 10 µM [2]: < 25%
logD at 0.5 h [3]: 2.1
Stability [4]: 94%
Papp B→A at 10 µM [6]: 13 ×10⁻⁶ cm/s
inhibition at 10 µM [7]: < 25%
inhibition [8]: 20%
clearance [11]: 1 mL/min/kg
IC50 [12]: 30000 nM
Vd [14]: 0.9 L/kg
fraction unbound [15]: 0.017
clearance [16]: 9 mL/min/kg
clearance [17]: 6 mL/min/kg
IC50 [18]: 30000 nM
Vd [19]: 0.7 L/kg
hepatocyte CLint [20]: 6 µL/min/1e6 cells
IC50 [21]: 82 nM
IC50 [22]: 120 nM
inhibition at 10 µM [23]: < 25%
fraction unbound [24]: 0.011
IC50 [25]: > 30000 nM
solubility thermodynamic at 24 h [26]: > 3000 µM
IC50 [27]: 310 nM
Vd [28]: 1.2 L/kg
Stability [29]: 52.8%
half-life [30]: 4.3 h
half-life [31]: 2.5 h
half-life [32]: 4.3 h
fraction unbound [33]: 0.023
Stability [35]: 92%
IC50 [36]: 6 nM
fraction unbound [37]: 0.015
dose excreted [38]: 7.6%
Structure (SMILES): CSc1nc(N2C[C@@H]3[C@H](C2)[C@H]3C(=O)O)ccc1C(=O)NC12CC3CC(CC(C3)C1)C2
inhibition in vivo at 30 mg/kg [5]: 50%
IC50 [9]: > 30000 nM
Activity [10]: Non-toxic
Activity [13]: Non-toxic
inhibition [34]: Active
